Here are results for 9 compounds from ChEMBL document CHEMBL5344406, “1,2,3-Triazole-containing hybrids with potential antibacterial activity against ESKAPE pathogens” (2022).

In brackets after ≈: the same amount, converted by molar mass.

What all share (type): functional
Assay [1] relates to Staphylococcus aureus. Put plainly: Antibacterial activity against Staphylococcus aureus assessed as bacterial growth inhibition incubated for 24 hrs by serial dilution method.
Assay [2] deals with Salmonella enterica. Briefly: Antibacterial activity against Salmonella enterica assessed as bacterial growth inhibition incubated for 24 hrs by serial dilution method.
Assay [3] relates to Escherichia coli. Briefly: Antibacterial activity against Escherichia coli assessed as bacterial growth inhibition incubated for 24 hrs by serial dilution method.
Assay [4] relates to Pseudomonas aeruginosa. Briefly: Antibacterial activity against Pseudomonas aeruginosa assessed as bacterial growth inhibition incubated for 24 hrs by serial dilution method.
For assay [5], the system named is Bacillus subtilis. Put plainly: Antibacterial activity against Bacillus subtilis assessed as bacterial growth inhibition incubated for 24 hrs by serial dilution method.
Assay [6] deals with Staphylococcus aureus. Briefly: Antibacterial activity against Staphylococcus aureus assessed as bacterial growth inhibition by broth dilution method. In general terms: Dilution methods test growth across graded concentrations, often in twofold steps.
Assay [7] has as its system Staphylococcus aureus. Briefly: Antibacterial activity against multidrug-resistant Staphylococcus aureus clinical isolate assessed as bacterial growth inhibition by broth dilution method.
Assay [8] concerns Staphylococcus aureus. Put plainly: Potency index, ratio of Norfloxacin MIC to test compound MIC for antibacterial activity against Staphylococcus aureus assessed as bacterial growth inhibition by broth dilution method.
The test system of assay [9] is Staphylococcus aureus. Briefly: Antibacterial activity against Staphylococcus aureus 209p ATCC 6538P assessed as bacterial growth inhibition incubated for 1 to 2 days by serial dilution method. The note with it: time 1-2 day.
Assay [10] has as its system Staphylococcus aureus. Briefly: Antibacterial activity against Staphylococcus aureus C-18 clinical isolate assessed as bacterial growth inhibition incubated for 1 to 2 days by serial dilution method. The note with it: time 1-2 day.
In assay [11] the test system is Staphylococcus aureus. Put plainly: Antibacterial activity against Staphylococcus aureus Viotko assessed as bacterial growth inhibition incubated for 1 to 2 days by serial dilution method. The note with it: time 1-2 day.
Assay [12] concerns Pseudomonas aeruginosa. Briefly: Antibacterial activity against Pseudomonas aeruginosa assessed as bacterial growth inhibition by serial dilution method.
Assay [13] deals with Escherichia coli. Briefly: Antibacterial activity against Escherichia coli MTCC 1687 assessed as bacterial growth inhibition by serial dilution method.
Assay [14] deals with Escherichia coli. Put plainly: Potency index, ratio of Ciprofloxacin MIC to test compound MIC for antibacterial activity against Escherichia coli MTCC 1687 assessed as bacterial growth inhibition by serial dilution method.
Assay [15] deals with Staphylococcus aureus. Briefly: Potency index, ratio of Ciprofloxacin MIC to test compound MIC for antibacterial activity against Staphylococcus aureus MTCC 737 assessed as bacterial growth inhibition by serial dilution method.
The subject of assay [16] is Staphylococcus aureus. Put plainly: Antibacterial activity against Staphylococcus aureus MTCC 737 assessed as bacterial growth inhibition by serial dilution method.
The test system of assay [17] is Pseudomonas aeruginosa. Briefly: Potency index, ratio of Ciprofloxacin MIC to test compound MIC for antibacterial activity against Pseudomonas aeruginosa assessed as bacterial growth inhibition by serial dilution method.
Assay [18] has as its system Staphylococcus aureus. Briefly: Antibacterial activity against methicillin-resistant Staphylococcus aureus ATCC 43300 infected in neutropenic mouse model of thigh infection assessed as reduction in bacterial load at 20 mg/kg, iv measured after 24 hrs by colony counting method.
The subject of assay [19] is Staphylococcus aureus. Briefly: Potency index, ratio of Pleuromutilin MIC to test compound MIC for antibacterial activity against Staphylococcus aureus ATCC 29213 incubated for 24 hrs by CLSI based broth dilution method.
Assay [20] relates to Staphylococcus aureus. Put plainly: Antibacterial activity against Staphylococcus aureus clinical isolate AD3 assessed as bacterial growth inhibition incubated for 24 hrs by CLSI based broth dilution method.
The test system of assay [21] is Staphylococcus aureus. Briefly: Potency index, ratio of Pleuromutilin MIC to test compound MIC for antibacterial activity against Staphylococcus aureus ATCC 43300 incubated for 24 hrs by CLSI based broth dilution method.
Assay [22] deals with Staphylococcus aureus. Briefly: Potency index, ratio of Pleuromutilin MIC to test compound MIC for antibacterial activity against Staphylococcus aureus clinical isolate AD3 incubated for 24 hrs by CLSI based broth dilution method.
Assay [23] concerns Staphylococcus aureus. Briefly: Antibacterial activity against Staphylococcus aureus clinical isolate 144 assessed as bacterial growth inhibition incubated for 24 hrs by CLSI based broth dilution method.
Assay [24] deals with Staphylococcus aureus. Briefly: Antibacterial activity against Staphylococcus aureus ATCC 43300 assessed as bacterial growth inhibition incubated for 24 hrs by CLSI based broth dilution method.
Assay [25] deals with Staphylococcus aureus. Briefly: Potency index, ratio of Pleuromutilin MIC to test compound MIC for antibacterial activity against Staphylococcus aureus clinical isolate 144 incubated for 24 hrs by CLSI based broth dilution method.
In assay [26] the test system is Staphylococcus aureus. Put plainly: Antibacterial activity against Staphylococcus aureus ATCC 29213 assessed as bacterial growth inhibition incubated for 24 hrs by CLSI based broth dilution method.
In assay [27] the test system is Streptococcus pneumoniae. Put plainly: Antibacterial activity against erythromycin-resistant Streptococcus pneumoniae B1 expressing ermB assessed as bacterial growth inhibition incubated for 24 hrs by CLSI based broth microdilution method.
For assay [28], the system named is Streptococcus pyogenes. Put plainly: Antibacterial activity against erythromycin-resistant Streptococcus pyogenes clinical isolate 2 assessed as bacterial growth inhibition incubated for 24 hrs by CLSI based broth microdilution method.
In assay [29] the test system is Escherichia coli. Put plainly: Antibacterial activity against Escherichia coli clinical isolate assessed as bacterial growth inhibition by disk diffusion method.
The subject of assay [30] is Staphylococcus aureus. Briefly: Antibacterial activity against methicillin-resistant Staphylococcus aureus ATCC 43300 assessed as bacterial growth inhibition incubated for 24 hrs by CLSI based broth microdilution method.
The test system of assay [31] is Staphylococcus aureus. Briefly: Potency index, ratio of azithromycin MIC to test compound MIC for antibacterial activity against penicillin-resistant Staphylococcus aureus ATCC 31007 assessed as bacterial growth inhibition incubated for 24 hrs by CLSI based broth microdilution method.
The test system of assay [32] is Staphylococcus aureus. Put plainly: Antibacterial activity against Staphylococcus aureus clinical isolate assessed as bacterial growth inhibition by disk diffusion method.
In assay [33] the test system is Staphylococcus aureus. Briefly: Potency index, ratio of azithromycin MIC to test compound MIC for antibacterial activity against methicillin-resistant Staphylococcus aureus ATCC 43300 assessed as bacterial growth inhibition incubated for 24 hrs by CLSI based broth microdilution method.
Assay [34] concerns Streptococcus pneumoniae. Put plainly: Antibacterial activity against erythromycin-resistant Streptococcus pneumoniae AB11 expressing ermB/mefA assessed as bacterial growth inhibition incubated for 24 hrs by CLSI based broth microdilution method.
Assay [35] deals with Streptococcus pyogenes. Put plainly: Potency index, ratio of azithromycin MIC to test compound MIC for antibacterial activity against erythromycin-resistant Streptococcus pyogenes clinical isolate 2 assessed as bacterial growth inhibition incubated for 24 hrs by CLSI based broth microdilution method.
Assay [36] has as its system Staphylococcus aureus. Put plainly: Antibacterial activity against penicillin-resistant Staphylococcus aureus ATCC 31007 assessed as bacterial growth inhibition incubated for 24 hrs by CLSI based broth microdilution method.
In assay [37] the test system is Streptococcus pneumoniae. Put plainly: Potency index, ratio of azithromycin MIC to test compound MIC for antibacterial activity against erythromycin-resistant Streptococcus pneumoniae AB11 expressing ermB/mefA assessed as bacterial growth inhibition incubated for 24 hrs by CLSI based broth microdilution method.
The test system of assay [38] is Streptococcus pneumoniae. Briefly: Potency index, ratio of azithromycin MIC to test compound MIC for antibacterial activity against erythromycin-resistant Streptococcus pneumoniae B1 expressing ermB assessed as bacterial growth inhibition incubated for 24 hrs by CLSI based broth microdilution method.
Assay [39] concerns Staphylococcus aureus. Put plainly: Antibacterial activity against methicillin-resistant Staphylococcus aureus assessed as bacterial growth inhibition by agar dilution method.
The test system of assay [40] is Staphylococcus aureus. Put plainly: Antibacterial activity against Staphylococcus aureus assessed as bacterial growth inhibition.
For assay [41], the system named is Escherichia coli. Put plainly: Antibacterial activity against Escherichia coli JM109 assessed as bacterial growth inhibition incubated for 18 to 20 hrs by broth microdilution method. Conditions: time 18-20 hrs.
Assay [42] has as its system Staphylococcus epidermidis. Briefly: Antibacterial activity against Staphylococcus epidermidis assessed as bacterial growth inhibition by broth dilution method.
Assay [43] relates to Bacillus subtilis. Briefly: Antibacterial activity against Bacillus subtilis assessed as bacterial growth inhibition incubated for 18 to 20 hrs by broth microdilution method. The note with it: time 18-20 hrs.
In assay [44] the test system is Bacillus subtilis. Briefly: Antibacterial activity against Bacillus subtilis assessed as bacterial growth inhibition.
Assay [45] deals with Escherichia coli. Briefly: Antibacterial activity against Escherichia coli assessed as bacterial growth inhibition.

Regarding `CC(C)C[C@H](NC(=O)OC(C)(C)C)C(=O)OCc1cn(Cc2ccc(F)cc2)nn1`, the MIC in assay [1], in assay [2], in assay [3], in [4] and in assay [5] was 3.12 µg/mL (≈ 7.42 µM) throughout.

For `CC(=O)OC[C@@H]1O[C@H](n2cc(Cn3c(=O)cc(C)n(CCCCCCCC[P+](c4ccccc4)(c4ccccc4)c4ccccc4)c3=O)nn2)[C@@H](OC(C)=O)[C@H]1OC(C)=O.[Br-]`, the MIC in assay [6] and in assay [7] was 1 µg/mL throughout. Further, the Ratio in assay [8] was found to be 7.5.

On to `CC(=O)OC[C@@H]1O[C@H](n2cc(Cn3c(=O)c4ccccc4n(CCCCCCCCCC[P+](c4ccccc4)(c4ccccc4)c4ccccc4)c3=O)nn2)[C@@H](OC(C)=O)[C@H]1OC(C)=O.[Br-]`, for which the MIC in [6] and in assay [7] was 1 µg/mL in each case. In addition, in [8], the Ratio came out at 7.5.

On to `O=C(O)c1ccc(-n2cc(CNC(=O)c3cc4ccc(=O)oc4cc3O)nn2)cc1`, for which the MIC (as a rule, the least concentration at which growth counts as inhibited) came to 0.16 µg/mL (≈ 0.394 µM) in assay [9], 0.65 µg/mL (≈ 1.6 µM) in [10] and 3.75 µg/mL (≈ 9.23 µM) in assay [11].

Turning to `COc1cccc2cc(C(=O)c3cn(-c4ccc(Cl)cc4)nn3)c(=O)oc12`, the MIC in [12], in [13] and in assay [16] was 6.25 µg/mL (≈ 16.4 µM) throughout. Also, the Ratio in [14], in [15] and in assay [17] was 2 throughout.

Regarding `C=C[C@]1(C)C[C@@H](OC(=O)CN2CCN(C(=O)Cn3cc(CN4CCN(c5ccc([N+](=O)[O-])cc5)CC4)nn3)CC2)[C@@]2(C)[C@@H]3C(=O)CC[C@@]3(CC[C@@H]2C)[C@@H](C)[C@@H]1O`, the Activity in [18] is on record as -2.07 log10CFU/ml. The Ratio in assay [19], in [21], in assay [22] and in [25] was 2 in each case. Moreover, the MIC in assay [20], in assay [23], in [24] and in assay [26] was 1 µg/mL (≈ 1.29 µM) in each case.

For `O=C(N[C@H](CO)[C@H](O)c1ccc([N+](=O)[O-])cc1)C(Cl)Cl` [CHLORAMPHENICOL], the MIC in [27] was above 256 µg/mL; in assay [28], above 256 µg/mL; in assay [29] it was 22.4 µg/mL (≈ 69.3 µM); in assay [30], above 256 µg/mL; in assay [32], 11.6 µg/mL (≈ 35.9 µM); in assay [34], above 256 µg/mL. In [36], the MIC was above 256 µg/mL. Besides, the Ratio in assay [31], in assay [33], in assay [35], in assay [37] and in assay [38] was above 16 throughout.

As for `COc1cc(/C=C/c2ccc(O)cc2)cc(OC)c1` [PTEROSTILBENE], the MIC in assay [39] is 41 µg/mL (≈ 160 µM).

As to `CN[C@@H]1[C@H](O[C@H]2[C@H](O[C@H]3[C@H](O)[C@@H](O)[C@H](N=C(N)N)[C@@H](O)[C@@H]3N=C(N)N)O[C@@H](C)[C@]2(O)C=O)O[C@@H](CO)[C@H](O)[C@H]1O` [STREPTOMYCIN], the MIC in [6] amounted to 9.36 µg/mL (≈ 16.1 µM); in assay [9], 1.89 µg/mL (≈ 3.25 µM); in assay [40], 6.25 µg/mL (≈ 10.7 µM); in [41], 1 µg/mL (≈ 1.72 µM); in [42] it was 4.68 µg/mL (≈ 8.05 µM); in assay [43], 2 µg/mL (≈ 3.44 µM). In addition, the MIC in assay [44] and in assay [45] was 6.25 µg/mL (≈ 10.7 µM) throughout.
